Experimental data from patent US10130715B2 (priority 2013, dated 2018).
Read-outs that look alike come from different tables or passages of the source.

What was measured:
[1] = cited from earlier work
individuals = settings: human, in vivo
Excerpt: A minimum clinically significant difference in VAS rating for pain or paraesthesia appears to range from 13 mm to 16 mm with a 95% confidence interval. (See e.g., Gallagher, et al., Am J Emerg Med. 2002; 20(4):287-90; Bouhassira, et al., Pain. 2004; 108(3):248-57; Poliakov, et al. Eur J Pain. 2011 November; 15(10):1015-22; and Eisenberg, et al. Eur J Pain. 1998; 2(4):321-327). VAS rating instruments have also been deemed specific and sensitive to detect the effects of an intervention on paraesthesia and neuropathic pain.

[2] = Pilot study: plasma β-alanine and net retention after oral ingestion (GC-MS); assay type: in vivo, human
Method: Each subject completed three trials, labeled “A”, “B”, and “C” using a Latin square design (i.e. subject 1 completed trials in ABC order, subject 2 completed trials in BCA order, and subject 3 completed trials in CAB order). […] Blood samples were drawn into lithium heparin tubes at baseline (time 0), 30 min, 1 hr, 2 hr, 3 hr, 4 hr post ingestion, spun in a clinical centrifuge for 15 minutes, and processed to obtain plasma.

In the case of `NCCC(=O)O` [β-alanine, 3-Aminopropanoic acid], the severity of paraesthesia ([1]; oral doses of 40 mg/kg or higher) is given as “moderate-to-severe”, the severity of paraesthesia ([1]; oral doses of 40 mg/kg) is given as “severe” and the severity of paraesthesia ([1]; oral, 10 mg/kg) is given as “relatively mild”. For the same molecule, the “anchored 100 mm VAS scores for paraesthesia” value (individuals) was 60 mm-90 mm, the “Net Loss (uMol), Mean (SD)” value ([2]; Mean (SD) of 3 subjects) was 9174.5 (862.96) uMol and the “Net Loss” value ([2]; Subject 1, 0-4 hr collection) was 10167.5 µmol. The “Net Loss” value ([2]; Subject 2, 0-4 hr collection) was 8606.6 µmol and the “Net Loss” value ([2]; Subject 3, 0-4 hr collection) was 8749.3 µmol.
